Measurements from patent publication US8901294B2, “MRI contrast agent having gadolinium complex” (priority 2010, dated 2014).
Entries after “also recorded” stand apart in the source; their conditions may differ. Read-outs that look alike come from different tables or passages of the source.

Tests used:
[1] = 20 MHz, 298 K; cited from earlier work
[2] = reference values from ref. 8 or 9; cited from earlier work
[3] = Transmetalation kinetics: evolution of paramagnetic relaxation rate R1P(t)/R1P(0) in presence of ZnCl2; assay type: physicochemical
Description: […]. The relative value of R1^P at time t, R1^P(t)/R1^P(0), is therefore a good estimate of the extent of transmetalation. The evolution of R1^P(t)/R1^P(0) over time gives relevant information about the kinetics of the reaction, whereas the plateau value theoretically reached at t=∞ will reflect the thermodynamic aspect.
Accordingly, in order to investigate the transmetalation kinetics of the gadolinium complexes according to the present invention, the evolution of water proton relaxation rate (R1^P) of a phosphate-buffered solution (pH 7.4) containing 2.5 mmol/L of Gd-complex and 2.5 mmol/L of ZnCl2 with time was measured. To measure the change in the relaxation rate, 10 μL of a ZnCl2 solution (250 mmol/L) was added to 1 mL of a buffered solution of the Gd-complex and the mixture was vigorously stirred. The same experiment was performed with Dotarem®, Omniscan®, Multihance®, Primovist® and ethyl tranexamate (6) with zinc acetate for comparison. The measurement was made on a 3T whole body system (Magnetom Tim Trip; Simens, Germany) at room temperature.

[4] = ICP measurement of Gd(III) ion concentration in organs with time; assay type: in vivo, mice; set-up: unit not given here
Procedure: (§1) To study the contrasting effect of the MRI contrast agent according to the present invention, six-week-old male ICR mice (weight=29-31 g) were used for the in vivo study. The mice were anesthetized by 1.5% isoflurane in oxygen and treated with gadolinium complex (5c) of the present invention at amount of 0.1 mmol of Gd/kg. After the treatment, the mouse was revived from anesthesia and placed in the cage with free access to food and water. The animals were maintained at approximately 37° C. using a warm water blanket.
The excretion via the bile duct was further confirmed by measuring the concentration of Gd(III) ions with time through inductively coupled plasma (ICP) measurement. At 6 h after the injection, the Gd(III) ions were detected in the intestine, confirming that they are excreted via the liver and the bile duct.

[5] = Relaxation times (T1, T2) and relaxivities (R1, R2) at 1.5 T; assay type: physicochemical
Procedure: T1 measurements were carried out using an inversion recovery method with a variable inversion time (TI) at 1.5 T. The MR images were acquired at 35 different TI values ranging from 50 to 1750 ms. T1 relaxation times were obtained from the nonlinear least-squares fit of the signal intensity measured at each T1 value. For T2 measurements the CPMG (Carr-Purcell-Meiboon-Gill) pulse sequence was adapted for multiple spin-echo measurements. Thirty-four images were acquired with 34 different echo time (TE) values. T2 relaxation times were obtained from the nonlinear least-squares fit of the mean pixel values for the multiple spin-echo measurements at each echo time. Relaxivities were then calculated as an inverse (R=1/s·mM) of relaxation time per mM. The determined relaxation times and relaxivities are finally transformed to a phantom map. The phantom images were obtained with the same concentration of Dotarem® and gadolinium complexes or comparative purposes. […] Table 2 summarizes the relaxation times and relaxivities for gadolinium complexes of the present invention along with other Gd-complexes.

[6] = system: ICR mice; experiment: In vivo MRI test; details: 0.1 mmol of Gd/kg
Procedure: as §1
MR images were taken with 1.5 T (GE Healthcare, Milwaukee, Wis., USA) equipped with a homemade small animal RF coil. The coil was of the receiver type with its inner diameter being 50 mm. The imaging parameters for 3D fast SPGR (spoiled GRASS images) are as follows: repetition time (TR)=8.8 ms; echo time (TE)=3.9 ms; 10 mm field of view (FOV); 256×192 matrix size; 1.0 mm slice thickness; number of acquisition (NEX)=4. The imaging parameters for spin-echo are as follows: TR=500 ms; TE=13 ms; 6 mm FOV; 192×128 matrix size; 1.5 mm slice thickness; NEX=4. Each image was taken with an interval of 3 min and 16 s. […] For analysis of the obtained MR images, signal intensities in specific regions of interest (ROI) were measured using Advantage Window software (GE Medical, USA). The CNR was calculated using Equation 3, where SNR is the signal-to-noise ratio. […]

Compound: CNC[C@H](O)[C@@H](O)[C@H](O)[C@H](O)CO.CNC[C@H](O)[C@@H](O)[C@H](O)[C@H](O)CO.O=C([O-])CN(CCN(CC(=O)[O-])CC(=O)O)CCN(CC(=O)[O-])CC(=O)O.[Gd+3] [Magnevist, (N-Me-glucamine)2[Gd(DTPA)(H2O)]]
- magnetic relaxation rate [1]: about 4.7 mM^−1s^−1

Compound: CNC(=O)CN(CCN(CCN(CC(=O)[O-])CC(=O)NC)CC(=O)[O-])CC(=O)[O-].[Gd+3] [Omniscan, [Gd(DTPA-bismethylamide)(H2O)]]
- R1 relaxivity [2]: 4.9 ± 0.14 mM⁻¹ s⁻¹
- R2 relaxivity [2]: 3.4 ± 0.25 mM⁻¹ s⁻¹
- T1 relaxation time [2]: 209.8 ± 5.82 ms
- T2 relaxation time [2]: 290.9 ± 21.02 ms
- paramagnetic relaxation rate retained, R1P(t)/R1P(0) (kinetic stability) ([3]; 72 hours, phosphate-buffered solution pH 7.4, 2.5 mmol/L Gd-complex and 2.5 mmol/L ZnCl2, room temperature, 3T): 30%
- pattern of evolution of the paramagnetic relaxation rate R1P(t)/R1P(0) (in words) ([3]; phosphate-buffered solution pH 7.4, 2.5 mmol/L Gd-complex and 2.5 mmol/L ZnCl2, 72 hours): drastic decrease in the rate
- magnetic relaxation rate [1]: about 4.4 mM^−1s^−1

Compound: C=CCOC(=O)C1CCC(CNC(=O)CN2CCN(CC(=O)[O-])CCN(CC(=O)[O-])CCN(CC(=O)[O-])CC2)CC1.O.[Gd+3] (centres unmarked) [Compound 5c]
- concentration of Gd(III) ions (ICP) ([4]; Bile duct, 6 h after injection): 13.95
- concentration of Gd(III) ions (ICP) ([4]; Blood, 1 h after injection): 5.16
- concentration of Gd(III) ions (ICP) ([4]; Blood, 6 h after injection): 0.12
- concentration of Gd(III) ions (ICP) ([4]; Intestine, 6 h after injection): 2.485
- concentration of Gd(III) ions (ICP) ([4]; Kidney, 1 h after injection): 65.17
- concentration of Gd(III) ions (ICP) ([4]; Kidney, 6 h after injection): 68.22
- concentration of Gd(III) ions (ICP) ([4]; Kidney, 24 h after injection): 10.89
- concentration of Gd(III) ions (ICP) ([4]; Kidney, 48 h after injection): 6.91
- concentration of Gd(III) ions (ICP) ([4]; Liver, 1 h after injection): 62.09
- concentration of Gd(III) ions (ICP) ([4]; Liver, 6 h after injection): 50.90
- concentration of Gd(III) ions (ICP) ([4]; Liver, 24 h after injection): 33.73
- concentration of Gd(III) ions (ICP) ([4]; Liver, 48 h after injection): 35.90
- concentration of Gd(III) ions (ICP) ([4]; Liver, 72 h after injection): 6.22
- R1 value compared with commercially available contrast agents (in words) ([5]; 1.5 T): significantly higher R1 values than any of the clinically used contrast agents; also recorded: very high R1 values
- R1 relaxivity ([5]; 1.5 T, mean value(±SD)): 9.5 ± 0.12 mM⁻¹ s⁻¹
- R2 relaxivity ([5]; 1.5 T, mean value(±SD)): 10.9 ± 0.03 mM⁻¹ s⁻¹
- T1 relaxation time ([5]; 1.5 T, mean value(±SD)): 105.28 ± 1.33 ms
- T2 relaxation time ([5]; 1.5 T, mean value(±SD)): 91.74 ± 0.25 ms
- R1 value relative to that of Dotarem ([5]; ratio of R1 values): 2.6 times
- excretion pattern (MR images) [6]: excreted slowly to the intestine via the bile duct through hepatobiliary uptake
- MR contrasting effect in the liver ([6]; 1.5 T): enhances contrast of the liver
